Assay results from ChEMBL document CHEMBL5352466, “New bioisosteric sulphur-containing choline kinase inhibitors with a tracked mode of action” (Eur J Med Chem, 2023).
The source made the active and inactive calls. The calls are words filed in the database; no cut-off is given here.

What was measured:
[1] = test system: HeLa; test: Antiproliferative activity against human HeLa cells assessed as inhibition of cell growth incubated for 72 hrs; type: functional
[2] = biological target: Choline kinase alpha (Homo sapiens, UniProt P35790); test: Inhibition of human Choline kinase alpha 1 incubated for 10 mins by liquid-scintillation counter analysis
[3] = test system: HT-29; test: Antiproliferative activity against human HT-29 cells assessed as inhibition of cell growth incubated for 72 hrs; type: functional
[4] = test system: A549; test: Antiproliferative activity against human A549 cells assessed as inhibition of cell growth incubated for 72 hrs; type: functional
[5] = test system: HeLa; test: Induction of apoptosis in human HeLa cells assessed as reduction in MCL-1 expression at 5 uM measured for 48 hrs by Western blotting analysis; type: functional, cell-based
[6] = test system: HeLa; test: Induction of apoptosis in human HeLa cells assessed as increase in cleaved PARP-1 expression at 5 uM measured for 48 hrs by Western blotting analysis; type: functional, cell-based
[7] = Antiproliferative activity against human Astrocyte cells assessed as inhibition of cell growth incubated for 72 hrs by resazurin dye based assay; type: toxicity
[8] = test system: MCF7; test: Antiproliferative activity against human MCF7 cells assessed as inhibition of cell growth incubated for 72 hrs; type: functional
[9] = test system: HeLa; test: Induction of apoptosis in human HeLa cells at 1 to 5 uM by Annexin V/propidium iodide staining based flow cytometry analysis; type: functional, cell-based; conditions: dose 1-5 µM, time 48-72 hrs, TDE = time-dependent effect
[10] = Antiproliferative activity against human MCF-10A cells assessed as inhibition of cell growth incubated for 72 hrs by resazurin dye based assay; type: toxicity
[11] = test system: HeLa; test: Induction of cell cycle arrest in human HeLa cells at 1 to 5 uM incubated for 24 hrs by PI staining based flow cytometry analysis; type: functional; conditions: dose 1-5 µM
[12] = test system: HeLa; test: Induction of mitochondrial membrane potential depolarization in human HeLa cells at 1 to 5 uM incubated for 24 hrs by JC-1 staining based flow cytometry; type: functional, cell-based; conditions: dose 1-5 µM
[13] = test system: HeLa; test: Induction of cell cycle arrest in human HeLa cells assessed as accumulation of cells at G1 phase at 1 to 5 uM incubated for 24 hrs by PI staining based flow cytometry analysis; type: functional; conditions: dose 1-5 µM
[14] = test system: Astrocyte; test: Induction of apoptosis in human Astrocyte cells assessed as reduction in MCL-1 expression at 5 uM measured for 48 hrs by Western blotting analysis; type: functional, cell-based
[15] = test system: HeLa; test: Induction of apoptosis in human HeLa cells at 1 to 5 uM measured for 72 hrs by Annexin V/propidium iodide staining based flow cytometry analysis; type: functional, cell-based; conditions: dose 1-5 µM
[16] = test system: A549; test: Induction of mitochondrial membrane potential depolarization in human A549 cells at 5 uM incubated for 24 hrs by JC-1 staining based flow cytometry; type: functional, cell-based
[17] = test system: HeLa; test: Induction of apoptosis in human HeLa cells measured for 48 to 72 hrs by Annexin V/propidium iodide staining based flow cytometry analysis; type: functional, cell-based; conditions: dose 1-5 µM, time 48-72 hrs
[18] = test system: A549; test: Induction of cell cycle arrest in human A549 cells at 1 to 5 uM incubated for 24 hrs by PI staining based flow cytometry analysis; type: functional; conditions: dose 1-5 µM
[19] = test system: MDA-MB-231; test: Antiproliferative activity against human MDA-MB-231 cells assessed as inhibition of cell growth incubated for 72 hrs; type: functional
[20] = test system: A549; test: Induction of apoptosis in human A549 cells at 5 uM measured for 72 hrs in presence of Z-VAD-fmk by Annexin V/propidium iodide staining based flow cytometry analysis; type: functional, cell-based
[21] = test system: HeLa; test: Induction of apoptosis in human HeLa cells at 5 uM measured for 72 hrs in presence of Z-VAD-fmk by Annexin V/propidium iodide staining based flow cytometry analysis; type: functional, cell-based

Chain of Choline kinase alpha (P35790 whole entry): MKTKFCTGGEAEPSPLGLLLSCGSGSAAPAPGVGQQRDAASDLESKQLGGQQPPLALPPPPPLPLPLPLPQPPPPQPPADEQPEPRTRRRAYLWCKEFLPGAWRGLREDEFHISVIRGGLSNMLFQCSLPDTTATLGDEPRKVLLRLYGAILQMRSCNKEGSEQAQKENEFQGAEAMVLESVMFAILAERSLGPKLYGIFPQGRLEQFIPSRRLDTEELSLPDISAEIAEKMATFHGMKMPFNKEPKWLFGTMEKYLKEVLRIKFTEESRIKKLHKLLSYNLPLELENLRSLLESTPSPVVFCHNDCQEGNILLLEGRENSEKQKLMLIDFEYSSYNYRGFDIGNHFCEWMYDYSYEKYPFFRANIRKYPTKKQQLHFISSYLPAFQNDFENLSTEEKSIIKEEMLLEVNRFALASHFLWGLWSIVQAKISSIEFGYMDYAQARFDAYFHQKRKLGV

SMILES | GI50 [1] [µM] | IC50 ([2]; read-out: IC50) [µM] | GI50 [3] [µM] | GI50 [4] [µM] | GI50 [8] [µM] | GI50 [19] [µM] | other results
c1cc(SSc2ccc(C[n+]3ccc(N4CCCC4)cc3)cc2)ccc1C[n+]1ccc(N2CCCC2)cc1 | > 10 | 0.36 | > 10 | > 10 |  |  | 
Clc1ccc2c(N3CCCC3)cc[n+](Cc3ccc(SCCSc4ccc(C[n+]5ccc(N6CCCC6)c6ccc(Cl)cc65)cc4)cc3)c2c1 | 0.26 |  | 3 | 0.53 | 1.34 |  | Activity [5]: Active; Activity [6]: Active; GI50 at 72 h [7]: 5 µM; Activity [9]: Tde; GI50 at 72 h [10]: 2.6 µM; Activity [11]: inactive; Activity [12]: Active; Activity [13]: Active; Activity [14]: inactive; Activity [15]: Active; Activity [16]: Active; Activity [17]: Dose-Dependent Effect; Activity [18]: inactive
CN(c1ccccc1)c1nc[n+](Cc2ccc(SCCSc3ccc(C[n+]4cnc(N(C)c5ccccc5)c5sccc54)cc3)cc2)c2ccsc12 | > 10 | 2.6 | > 10 | 8.2 | 9.12 | 8.94 | 
Clc1ccc2c(N3CCCC3)cc[n+](Cc3ccc(SSc4ccc(C[n+]5ccc(N6CCCC6)c6ccc(Cl)cc65)cc4)cc3)c2c1 | > 10 | 1.43 | > 10 | > 10 |  |  | 
CN(C)c1cc[n+](Cc2ccc(SCCSc3ccc(C[n+]4ccc(N(C)C)cc4)cc3)cc2)cc1.[Br-].[Br-] | > 10 |  | > 10 | 1.38 |  | 4.2 | IC50 [2]: Not Determined(Insoluble)
[Br-].[Br-].c1cc2c(s1)c(N1CCCCCC1)cc[n+]2Cc1ccc(SSc2ccc(C[n+]3ccc(N4CCCCCC4)c4sccc43)cc2)cc1 | > 10 |  | > 10 | > 10 |  |  | IC50 [2]: Not Determined(Insoluble)
CN(c1ccc(Cl)cc1)c1cc[n+](Cc2ccc(SCCSc3ccc(C[n+]4ccc(N(C)c5ccc(Cl)cc5)c5ccccc54)cc3)cc2)c2ccccc12 | > 10 | 1.02 | 8.9 | 2.9 | 3.69 | 5.87 | 
c1cc2c(N3CCCCCC3)nc[n+](Cc3ccc(SSc4ccc(C[n+]5cnc(N6CCCCCC6)c6ccsc65)cc4)cc3)c2s1 | 1.23 | 0.32 | > 10 | 4.26 |  |  | 
c1cc2c(s1)c(N1CCCC1)nc[n+]2Cc1ccc(SSc2ccc(C[n+]3cnc(N4CCCC4)c4sccc43)cc2)cc1 | > 10 | 0.57 | > 10 | > 10 |  |  | 
c1cc2c(N3CCCCCC3)cc[n+](Cc3ccc(SCCSc4ccc(C[n+]5ccc(N6CCCCCC6)c6ccsc65)cc4)cc3)c2s1 | 2.8 | 0.66 | 2.09 | 0.89 | 1.46 | 1.46 | Activity [5]: Active; Activity [20]: inactive; Activity [6]: Active; GI50 at 72 h [7]: 2.5 µM; Activity [9]: Tde; Activity [11]: inactive; Activity [12]: Active; Activity [13]: Active; Activity [14]: inactive; Activity [15]: Active; Activity [21]: Active; Activity [16]: Active; Activity [17]: Dose-Dependent Effect; Activity [18]: inactive
c1cc2c(s1)c(N1CCCCCC1)cc[n+]2Cc1ccc(SCCSc2ccc(C[n+]3ccc(N4CCCCCC4)c4sccc43)cc2)cc1 | 4.63 | 0.64 | 2.41 | 1.29 | 2.12 | 1.92 | Activity [5]: Active; Activity [20]: inactive; Activity [6]: Active; GI50 at 72 h [7]: 4.4 µM; Activity [9]: Tde; GI50 at 72 h [10]: 2.5 µM; Activity [11]: inactive; Activity [12]: Active; Activity [13]: Active; Activity [14]: inactive; Activity [15]: Active; Activity [21]: Active; Activity [16]: Active; Activity [17]: Dose-Dependent Effect; Activity [18]: inactive
[Br-].[Br-].c1cc(SCCSc2ccc(C[n+]3ccc(N4CCCC4)cc3)cc2)ccc1C[n+]1ccc(N2CCCC2)cc1 | 8.84 |  | 9.06 | 1.59 |  | 1.75 | IC50 [2]: Not Determined(Insoluble)
CN(c1ccc(Cl)cc1)c1cc[n+](Cc2ccc(SSc3ccc(C[n+]4ccc(N(C)c5ccc(Cl)cc5)c5ccccc54)cc3)cc2)c2ccccc12 | > 10 | 0.85 | > 10 | > 10 |  |  | 
CN(c1ccccc1)c1cc[n+](Cc2ccc(SCCSc3ccc(C[n+]4ccc(N(C)c5ccccc5)c5ccccc54)cc3)cc2)c2ccccc12 | 9.06 | 1.72 | 5.98 | 2.02 | 4.73 | 1.97 | 
c1cc2c(N3CCCCC3)nc[n+](Cc3ccc(SSc4ccc(C[n+]5cnc(N6CCCCC6)c6ccsc65)cc4)cc3)c2s1 | > 10 | 0.52 | > 10 | > 10 |  |  | 
c1cc2c(s1)c(N1CCCC1)cc[n+]2Cc1ccc(SSc2ccc(C[n+]3ccc(N4CCCC4)c4sccc43)cc2)cc1 | 2.2 | 0.35 | > 10 | 6.16 |  |  | 
CN(c1ccccc1)c1cc[n+](Cc2ccc(SCCSc3ccc(C[n+]4ccc(N(C)c5ccccc5)c5ccsc54)cc3)cc2)c2sccc12 | 5.25 | 1.43 | 6.8 | 4.05 | 3.94 | 6.68 | 
CN(C)c1cc[n+](Cc2ccc(SSc3ccc(C[n+]4ccc(N(C)C)cc4)cc3)cc2)cc1 | 0.44 | 0.64 | > 10 | 2.45 |  |  | 
c1cc2c(s1)c(N1CCCC1)cc[n+]2Cc1ccc(SCCSc2ccc(C[n+]3ccc(N4CCCC4)c4sccc43)cc2)cc1 | 9.93 | 1.01 | 7.48 | 1.37 | 3.11 | 2.01 | 
c1cc2c(N3CCCCC3)cc[n+](Cc3ccc(SCCSc4ccc(C[n+]5ccc(N6CCCCC6)c6ccsc65)cc4)cc3)c2s1 | 2.99 | 4.4 | 2.16 | 0.92 | 1.21 | 1.23 | 
CN(c1ccc(Cl)cc1)c1cc[n+](Cc2ccc(SCCSc3ccc(C[n+]4ccc(N(C)c5ccc(Cl)cc5)c5ccsc54)cc3)cc2)c2sccc12 | > 10 | 0.71 | 6.07 | 2.66 | 2.37 | 2.95 | 
